# ChEMBL document CHEMBL5357068, “Discovery of Novel TLR7 Agonists as Systemic Agent for Combination With aPD1 for Use in Immuno-oncology” (ACS Med Chem Lett, 2024)
# Legend:
# THP-1 = test: Cytotoxicity against human THP-1 cells; type: toxicity, cell-based
# CT26 [1] = test: Antitumor activity against mouse CT26 cells implanted in Balb/cAnNHsd mouse administered intraperitoneally once a week for 4 weeks in the presence of aPD1 antibody; type: functional; settings: dose lower […], dose upper […], route ip
# [2] = Permeability of compound at pH 5.5 by PAMPA; type: ADME; settings: read-out: permeability
# in vitro = settings: PHA-activated T cells
# [3] = Metabolic stability in human liver microsomes assessed as half-life; type: ADME, Microsome
# [4] = Permeability of compound across basolateral to apical side in human Caco-2 cells; type: ADME, cell-based; settings: read-out: permeability
# Blood [5] = test: Induction of MX1 secretion in human whole blood; type: functional, tissue-based
# [6] = Permeability of compound at pH 7.4 by PAMPA; type: ADME; settings: read-out: permeability
# Blood [7] = test: Induction of MX1 secretion in mouse whole blood; type: functional, tissue-based
# Blood [8] = test: Induction of IP-10 secretion in human whole blood; type: functional, tissue-based
# [9] = target: Toll-like receptor 3 (Homo sapiens) (UniProt O15455); test: Agonist activity at human TLR3
# [10] = Protein binding in cynomolgus monkey plasma assessed as free fraction; type: ADME, cell-free, Macaca fascicularis
# Jurkat = test: Cytotoxicity against human Jurkat cells; type: toxicity, cell-based
# [11] = target: T1, Toll-like receptor 9 (Homo sapiens) (UniProt Q9NR96); test: Agonist activity at human TLR9
# T1 sequence (whole entry): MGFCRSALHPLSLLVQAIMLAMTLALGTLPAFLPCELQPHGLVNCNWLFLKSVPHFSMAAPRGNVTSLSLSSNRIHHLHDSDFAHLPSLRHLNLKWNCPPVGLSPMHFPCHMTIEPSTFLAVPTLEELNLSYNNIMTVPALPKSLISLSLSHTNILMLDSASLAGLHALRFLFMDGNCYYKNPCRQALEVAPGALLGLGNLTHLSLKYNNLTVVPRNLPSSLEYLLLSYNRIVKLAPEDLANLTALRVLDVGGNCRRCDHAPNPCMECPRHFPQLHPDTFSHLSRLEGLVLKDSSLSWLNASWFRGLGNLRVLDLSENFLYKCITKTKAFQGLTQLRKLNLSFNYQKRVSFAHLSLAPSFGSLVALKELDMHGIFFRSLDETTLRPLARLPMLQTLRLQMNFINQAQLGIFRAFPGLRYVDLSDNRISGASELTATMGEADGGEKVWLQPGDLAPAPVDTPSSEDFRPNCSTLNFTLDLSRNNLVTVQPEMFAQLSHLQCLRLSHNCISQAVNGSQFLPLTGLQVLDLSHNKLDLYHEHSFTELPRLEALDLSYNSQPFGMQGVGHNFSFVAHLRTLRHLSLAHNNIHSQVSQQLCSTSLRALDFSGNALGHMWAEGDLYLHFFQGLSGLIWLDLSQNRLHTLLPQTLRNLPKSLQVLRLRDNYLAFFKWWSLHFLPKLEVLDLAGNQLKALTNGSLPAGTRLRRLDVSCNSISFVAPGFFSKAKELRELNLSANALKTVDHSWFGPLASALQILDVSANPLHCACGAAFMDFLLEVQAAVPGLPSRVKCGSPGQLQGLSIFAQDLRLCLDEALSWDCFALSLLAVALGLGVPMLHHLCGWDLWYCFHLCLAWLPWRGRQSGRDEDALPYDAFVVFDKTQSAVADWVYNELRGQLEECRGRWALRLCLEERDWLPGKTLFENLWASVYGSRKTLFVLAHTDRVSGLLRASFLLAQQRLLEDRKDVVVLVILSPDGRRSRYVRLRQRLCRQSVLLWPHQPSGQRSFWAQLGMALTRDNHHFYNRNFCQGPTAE
# [12] = Permeability of compound across apical to basolateral side in human Caco-2 cells; type: ADME, cell-based; settings: read-out: permeability
# Blood [13] = test: Induction of TNF-alpha secretion in human whole blood; type: functional, tissue-based
# [14] = target: Toll-like receptor 4 (Homo sapiens) (UniProt O00206); test: Agonist activity at human TLR4
# Blood [15] = test: Induction of IP-10 secretion in mouse whole blood; type: functional, tissue-based
# [16] = Metabolic stability in human liver microsomes assessed as compound remaining; type: ADME, Microsome
# CT26 [17] = test: Cytotoxicity against mouse CT26 cells; type: toxicity, cell-based
# Blood [18] = test: Induction of IFIT1 secretion in mouse whole blood; type: functional, tissue-based
# [19] = Clearance in Balb/c mouse at 0.5 mg/kg, iv measured after 2 hrs by LC-MS analysis; type: ADME, organism-based; settings: in vivo
# [20] = target: Toll-like receptor 2 (Homo sapiens) (UniProt O60603); test: Agonist activity at human TLR2
# [21] = target: T2, Toll-like receptor 8 (Homo sapiens) (UniProt Q9NR97); test: Agonist activity at human TLR8
# T2 sequence (whole entry): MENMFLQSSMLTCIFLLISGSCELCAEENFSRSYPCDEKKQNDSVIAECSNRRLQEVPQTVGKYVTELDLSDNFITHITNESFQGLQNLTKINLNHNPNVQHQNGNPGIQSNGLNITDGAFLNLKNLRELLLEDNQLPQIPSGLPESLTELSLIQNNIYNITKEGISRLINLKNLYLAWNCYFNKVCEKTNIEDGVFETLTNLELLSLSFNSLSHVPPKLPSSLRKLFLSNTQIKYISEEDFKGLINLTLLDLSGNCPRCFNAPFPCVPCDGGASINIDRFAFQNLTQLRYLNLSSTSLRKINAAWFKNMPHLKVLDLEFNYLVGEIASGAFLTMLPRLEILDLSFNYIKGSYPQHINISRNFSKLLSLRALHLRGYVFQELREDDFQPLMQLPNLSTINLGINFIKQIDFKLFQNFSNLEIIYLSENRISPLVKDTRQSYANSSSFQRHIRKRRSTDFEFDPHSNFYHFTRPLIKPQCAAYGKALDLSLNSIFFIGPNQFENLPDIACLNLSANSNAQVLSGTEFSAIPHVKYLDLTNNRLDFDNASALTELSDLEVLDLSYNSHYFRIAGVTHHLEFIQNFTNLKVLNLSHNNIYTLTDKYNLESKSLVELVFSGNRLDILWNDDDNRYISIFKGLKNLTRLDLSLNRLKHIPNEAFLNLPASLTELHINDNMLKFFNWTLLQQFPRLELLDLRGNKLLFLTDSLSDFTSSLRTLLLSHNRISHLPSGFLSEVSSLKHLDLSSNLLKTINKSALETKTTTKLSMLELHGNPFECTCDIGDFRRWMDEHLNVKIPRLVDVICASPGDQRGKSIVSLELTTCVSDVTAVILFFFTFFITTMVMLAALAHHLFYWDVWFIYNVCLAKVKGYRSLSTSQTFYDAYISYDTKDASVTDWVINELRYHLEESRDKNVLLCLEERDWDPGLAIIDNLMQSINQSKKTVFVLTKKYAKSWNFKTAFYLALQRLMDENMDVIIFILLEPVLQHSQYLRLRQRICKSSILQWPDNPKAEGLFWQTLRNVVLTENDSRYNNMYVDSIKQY
# Blood [22] = test: Induction of IFIT3 secretion in mouse whole blood; type: functional, tissue-based
# [23] = AUClast in Balb/c mouse at 0.5 mg/kg, iv measured after 2 hrs by LC-MS analysis; type: ADME, organism-based; parameters: dose 0.5 mg/kg, time 2 hrs, route iv; settings: in vivo
# Toll-like receptor 4 (Homo sapiens), sequence (O00206 whole entry): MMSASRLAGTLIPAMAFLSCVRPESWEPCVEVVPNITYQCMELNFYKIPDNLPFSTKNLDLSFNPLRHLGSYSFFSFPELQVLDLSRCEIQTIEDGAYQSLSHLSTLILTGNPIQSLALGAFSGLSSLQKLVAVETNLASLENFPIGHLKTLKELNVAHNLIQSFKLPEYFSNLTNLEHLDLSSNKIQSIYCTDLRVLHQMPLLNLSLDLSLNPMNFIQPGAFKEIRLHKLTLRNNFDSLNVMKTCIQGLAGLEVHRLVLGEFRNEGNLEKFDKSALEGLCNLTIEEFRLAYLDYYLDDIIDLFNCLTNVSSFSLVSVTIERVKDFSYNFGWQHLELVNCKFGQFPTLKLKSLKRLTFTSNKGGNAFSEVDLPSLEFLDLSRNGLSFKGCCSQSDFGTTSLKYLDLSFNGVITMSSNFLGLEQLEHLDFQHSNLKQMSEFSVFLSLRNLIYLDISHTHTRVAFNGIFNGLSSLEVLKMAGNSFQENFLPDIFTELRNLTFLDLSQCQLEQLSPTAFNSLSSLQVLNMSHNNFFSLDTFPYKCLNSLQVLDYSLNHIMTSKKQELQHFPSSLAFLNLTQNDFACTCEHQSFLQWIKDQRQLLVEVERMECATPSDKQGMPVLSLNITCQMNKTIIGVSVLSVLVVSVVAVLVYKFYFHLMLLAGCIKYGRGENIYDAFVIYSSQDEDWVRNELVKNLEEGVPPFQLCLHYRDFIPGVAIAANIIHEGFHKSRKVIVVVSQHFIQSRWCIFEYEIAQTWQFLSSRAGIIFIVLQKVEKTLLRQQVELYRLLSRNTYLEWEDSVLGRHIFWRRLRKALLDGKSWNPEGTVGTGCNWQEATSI
# Toll-like receptor 3 (Homo sapiens), sequence (O15455 whole entry): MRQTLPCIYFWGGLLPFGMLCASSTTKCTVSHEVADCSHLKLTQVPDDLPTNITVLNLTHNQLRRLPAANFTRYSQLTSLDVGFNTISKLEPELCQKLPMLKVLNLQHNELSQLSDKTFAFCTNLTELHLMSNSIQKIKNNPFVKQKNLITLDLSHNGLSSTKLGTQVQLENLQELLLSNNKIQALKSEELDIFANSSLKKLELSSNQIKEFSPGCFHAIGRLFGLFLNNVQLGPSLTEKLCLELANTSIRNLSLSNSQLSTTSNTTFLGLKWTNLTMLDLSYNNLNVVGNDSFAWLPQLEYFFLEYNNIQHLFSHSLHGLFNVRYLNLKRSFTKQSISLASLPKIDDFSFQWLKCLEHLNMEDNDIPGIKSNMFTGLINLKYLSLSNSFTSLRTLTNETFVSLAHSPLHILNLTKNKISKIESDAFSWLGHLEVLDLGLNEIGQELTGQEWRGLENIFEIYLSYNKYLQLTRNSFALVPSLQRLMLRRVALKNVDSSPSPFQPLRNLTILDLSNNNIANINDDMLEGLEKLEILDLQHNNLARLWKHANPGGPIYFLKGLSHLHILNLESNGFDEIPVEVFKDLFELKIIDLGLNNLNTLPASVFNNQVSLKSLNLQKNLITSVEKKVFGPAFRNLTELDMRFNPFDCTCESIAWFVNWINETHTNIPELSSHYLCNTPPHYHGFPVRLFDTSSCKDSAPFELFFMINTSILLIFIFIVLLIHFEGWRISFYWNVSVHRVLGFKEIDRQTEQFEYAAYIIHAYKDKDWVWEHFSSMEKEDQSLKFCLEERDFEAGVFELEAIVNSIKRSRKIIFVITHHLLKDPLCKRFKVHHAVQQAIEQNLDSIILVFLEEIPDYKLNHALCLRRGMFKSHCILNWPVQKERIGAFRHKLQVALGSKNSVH
# Toll-like receptor 2 (Homo sapiens), sequence (O60603 whole entry): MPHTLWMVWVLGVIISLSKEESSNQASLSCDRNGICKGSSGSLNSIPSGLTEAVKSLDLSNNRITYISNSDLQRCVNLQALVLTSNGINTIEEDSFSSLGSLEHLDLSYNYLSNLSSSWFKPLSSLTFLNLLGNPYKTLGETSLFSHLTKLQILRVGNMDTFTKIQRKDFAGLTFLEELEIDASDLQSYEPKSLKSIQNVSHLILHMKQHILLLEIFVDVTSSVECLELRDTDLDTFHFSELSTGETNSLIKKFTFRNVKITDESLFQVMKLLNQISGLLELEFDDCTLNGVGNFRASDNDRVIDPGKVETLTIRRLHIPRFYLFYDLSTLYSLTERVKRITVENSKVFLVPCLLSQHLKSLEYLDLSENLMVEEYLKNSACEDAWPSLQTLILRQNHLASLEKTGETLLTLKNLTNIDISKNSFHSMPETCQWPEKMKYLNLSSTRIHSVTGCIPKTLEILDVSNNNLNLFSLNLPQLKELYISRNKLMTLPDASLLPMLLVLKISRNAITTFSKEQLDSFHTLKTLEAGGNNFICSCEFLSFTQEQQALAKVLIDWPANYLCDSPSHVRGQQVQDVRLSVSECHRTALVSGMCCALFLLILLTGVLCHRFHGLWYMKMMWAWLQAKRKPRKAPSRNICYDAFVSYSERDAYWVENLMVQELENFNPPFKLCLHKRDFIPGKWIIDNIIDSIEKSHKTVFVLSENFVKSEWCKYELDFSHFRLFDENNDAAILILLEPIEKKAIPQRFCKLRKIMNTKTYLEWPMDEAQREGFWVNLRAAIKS
structure (smiles),measurement,setting,value
CCC[C@@H](CCO)Nc1nc(N)nc2cnn(Cc3ccc(CNC4CCOCC4)cc3OC)c12,EC,THP-1,> 25 µM
same,Activity,CT26 [1],Dose-Dependent Effect
same,Papp,[2],0.95 ×10⁻⁶ cm/s
same,IC50,in vitro,> 25000 nM
same,half-life,[3],43 min
same,Papp B→A,[4],10.9 ×10⁻⁶ cm/s
same,EC50,Blood [5],0.09 nM
same,Papp,[6],1.58 ×10⁻⁶ cm/s
same,EC50,Blood [7],0.18 nM
same,EC50,Blood [8],0.13 nM
same,EC,[9],> 5 µM
same,fraction unbound,[10],0.31
same,EC,Jurkat,> 25 µM
same,EC,[11],> 5 µM
same,Papp A→B,[12],1.4 ×10⁻⁶ cm/s
same,EC50,Blood [13],631 nM
same,EC,[14],> 5 µM
same,EC50,Blood [15],0.32 nM
same,Stability,[16],75%
same,EC,CT26 [17],> 25 µM
same,EC50,Blood [18],0.19 nM
same,clearance,[19],160 mL/min/kg
same,EC,[20],> 5 µM
same,EC,[21],> 5 µM
same,EC50,Blood [22],0.13 nM
same,AUC(0-t) at 2 h,[23],0.183 µM·h
